The test system of one series is SUMO2/3 conjugates. The series is described as follows: SUMOylation pathway inhibition: decrease in SUMO2/3 conjugates in blood lymphocytes, skin and tumor. The class given is in vivo, human. As for the experimental part:
(§1) Blood samples for subasumstat–SUMO adduct formation and SUMO2/3 inhibition assessments were collected before dose and at 1, 4, and 8 hours after the infusion on C1D1 and C1D8. Blood samples for additional biomarker analyses were collected before dose on C1D1 and C1D8 and at 4, 8, and 24 hours after infusion on C1D1 and C1D8. Skin biopsies (used as surrogate tissue for solid tumors) were collected at screening and on C1D8 at 2 hours (±30 minutes) after end of infusion, and tumor biopsies were collected at screening and cycle 2 day 8 (C2D8; +7 days; whenever possible). In blood samples, a custom flow cytometry assay was utilized for detecting target engagement and SUMOylated protein levels in lymphocytes (including T-, B-, and NK-cell subsets). The assay included a PE-conjugated antibody specifically recognizing the SUMO–subasumstat adduct (MIL-113, anti–cysteinyl-TAK-981, Epitomics; refs. [14], [15], [22]) and an AF488-conjugated antibody recognizing SUMO2/3 conjugates (MBL International, cat. #M114-3, RRID: AB_592769). Peripheral blood cells were lysed/fixed, permeabilized (BD Biosciences), and stained with MIL-113 and M114-3 and with antibodies against CD45, CD3, CD19, CD16/CD56, and CD14. IHC assays for SUMO–subasumstat adduct and SUMO2/3 inhibition in skin biopsies and tumors were performed using MIL-113 and M114-3 antibodies. Activation of the IFNI pathway was assessed in peripheral blood by analysis of gene expression data (PanCancer IO 360 panel by NanoString for phase I and whole-transcriptome RNA sequencing data for phase II). Type I IFN gene signature was computed using geometric mean of the following genes: CCL2, CXCL10, DDX58, IRF7, ISG15, STAT1, and STAT2. These seven IFNI-regulated genes were selected prior to the trial, based on in vitro studies of the effect of subasumstat on human blood from 10 healthy donors analyzed on the NanoString PanCancer IO 360 panel. Plasma chemokines and cytokines were measured using the MesoScale Discovery platform (pro-inflammatory and chemokine panels, BioAgilytix). For assessment of NK- and T-cell activation, cells were suspended in buffer and incubated with the following monoclonal antibodies: APC-H7 mouse anti–human CD45 (BD Biosciences, cat. #560274), APC mouse anti–human CD69 (BD Biosciences, cat. #555533), BV421 mouse anti–human CD56 (BD Biosciences, cat. #562751), mouse anti–human CD16 PerCP-Cy5.5 (BD Biosciences, cat. #338440), BV510 mouse anti–human CD4 (BD Biosciences, cat. #563094), BV605 mouse anti–human CD8 (BD Biosciences, cat. #564116), and Alexa Fluor 700 anti–mouse CD3 antibody (BioLegend, cat. #100215), prior to assessment by flow cytometry using the BD Scientific FACSCanto flow cytometer (RRID: SCR_018055). Tumor PD-L1 expression level was assessed in paired tumor biopsies using the 22C3 PD-L1 IHC assay; combined positive score (CPS) was calculated for baseline and on-treatment tumor samples. The immune landscape in the tumor microenvironment (TME) was assessed using an integrated RNAscope and 27-marker MultiOmyx immunofluorescence panel.

Series [1] deals with tumor microenvironment (TME). The series is described as follows: Tumor microenvironment in paired tumor biopsies (multiplex immunofluorescence, PD-L1 22C3 IHC CPS). Format: in vivo, human. As for the experimental part:
as §1

For a further series, the system named is relapsed/refractory NHL. The arrangement: method as in ref 19 = [19]; 19. Assouline S , Mehta A , Phillips T , Alinari L , Danilov AV , Doucet S , . TAK-981, a first-in-class SUMO-activating enzyme inhibitor, combined with rituximab in adult patients (Pts) with CD20-pos. Particulars: in combination with rituximab; 24 patients with relapsed/refractory NHL; cited from earlier work.

Series [2] relates to lymphoma and pancreatic cancer xenografts. The arrangement: method as in PMID 33631934. Particulars: cited from earlier work.
For series [3] the following is noted: cited from earlier work.
The subject of series [4] is tumor microenvironment (TME). Also noted: method as in PMID 37389981. Particulars: intratumor microdosing; cited from earlier work.
Setting [5] is: cervical cancer and melanoma biopsies.

Where only a bound is given, the exact number is not on record here.

Take `Cc1sc(C(=O)c2cncnc2N[C@@H]2C[C@H](COS(N)(=O)=O)[C@@H](O)C2)cc1[C@@H]1NCCc2ccc(Cl)cc21` [subasumstat]: in the series with SUMO2/3 conjugates (peripheral blood lymphocytes), the “Duration of SUMO2/3 inhibition” value is “at least 8 hours” and the “Time to SUMO2/3 inhibition after end of infusion” value is not above 1 h. Moreover, the “Dose from which SUMO2/3 inhibition was observed” value in the series with SUMO2/3 conjugates (peripheral blood lymphocytes, dose-dependent) was not below 40 mg. Also, in the series on SUMO2/3 conjugates (post-dose tumor samples, except two MSS colorectal cancer and one NSCLC patient), the “SUMO2/3 inhibition in tumor samples” value is recorded as “observed in most post-dose samples”. Besides, in the series with SUMO2/3 conjugates (skin biopsies on C1D8), the “Dose from which reduced SUMO2/3 levels were observed in skin” value was not below 60 mg. The “T-cell infiltration in tumor” value in series [1] (CPI-naïve cervical cancer and CPI-exposed melanoma and NSCLC samples) is “significant CD8^+ and CD4^+ T-cell infiltration”. Also, the “T-cell density in tumor” value in series [1] (biopsies from three patients with MSS colorectal cancer) is reported as “did not exhibit an increase in T-cell density”. Besides, in series [1] (setting [5]), the “Activated CD11C+HLA-DR+ myeloid dendritic cells” value is recorded as “increase in density”; the “HLA class I expression on tumor cells” value is reported as “marked increase”; the “T-cell activation (CD69 on CD4+ and CD8+ T cells) in tumor” value was “significant increase in T-cell activation”. Moreover, the “PD-L1 CPS” value in series [1] (paired tumor samples, C2D8) is reported as “increased in most paired tumor samples”. Besides, in series [1] (same biopsies), the “Regulatory T cells in tumor” value is “no significant changes”. Besides, the ORR in the series on relapsed/refractory NHL is 29%. Also, in series [2] (immunocompromised mice), the Antitumor activity entry was “shows antitumor activity”. For the same molecule, in series [2] (xenograft models), the SUMOylation in tumors result was “inhibits SUMOylation in tumors”. In addition, the Lymphopenia entry in series [3] (A20 lymphoma–bearing BALB/c mice) is given as “transient lymphopenia”. Also, the B-cell depletion result in series [3] (mouse model of pancreatic ductal adenocarcinoma) is “transient B-cell depletion”. Also, the Systemic toxicities entry in series [3] (preclinical mouse models) was “No systemic toxicities were observed”. Further, in series [4], the “Modulation of the TME” value is listed as “modulate the TME from an immune-suppressive to an immune-permissive status”.

Values taken from article PMC12627933, “A First-In-Human Study of the SUMOylation Inhibitor Subasumstat in Patients with Advanced/Metastatic Solid Tumors or Relapsed/Refractory Hematologic Malignancies” (Cancer Research Communications, 2025).
